Tests used:
[1] = test system: human primary fibroblasts (CRL2097 or BJ); assay: Reprogramming of human primary fibroblasts transduced with 4TFs; assay type: cell-based
Experimental: We tested known inhibitors of the TGFβ receptor and MEK on 1×10^4 [Feng, B. et al., Cell Stem Cell 4, 301-12 (2009)] human primary fibroblasts (CRL2097 or BJ) that were retrovirally transduced with the 4TFs (Oct4, Klf4, Sox2 and c-Myc), for their effects on reprogramming kinetics and efficiency. On day 7 (D7) post-infection, the compounds were added, individually or in combinations, and the cultures were examined for iPSCs over the next 1-3 weeks.
The Slc7a1-expressing human fibroblast cells were seeded at 1×10^5 cells/well of a 6 well plate on the day 1. On day 2, 0.25 ml of each retroviral supernatant was added to the cells in the presence of 6 μg/ml polybrene. A second round of transduction was done on day 3. Infection efficiency was estimated by fluorescence microscopy on cells transduced in parallel with GFP or RFP gene-carrying retroviruses. Seven days after initial transduction, fibroblasts were harvested by trypsinization and re-plated at 1×10^4 cells/well of a 6 well plate coated with matrigel (1:50 dilution, cat 354234, BD Biosciences). For compound treatment, the cells were cultured in human reprogramming medium (DMEM/F12, 20% Knockout serum replacer, lx MEM Non-Essential amino acid, lx glutamax, 0.11 mM 2-Mercaptoethanol, 20 ng/ml bFGF and 1,000 U/ml LIF) and were treated with 2 μM SB431542 (Stemgent), 0.5 μM PD0325901 (Stemgent), or combinations of the compounds. The media were changed every 2-3 days depending on the cell density. Seven days after compound treatment, either the plates were fixed and stained for Alkaline phosphatase (ALP) activity, or stained for protein markers, or the cultures were continued with or without indicated splitting by trypsinization till day 30. For split cultures, the cells were split (1:4) and re-plated onto irradiated CF-1 MEF feeder layer (2.5×10^5 cells/well) in each well of 6 well plate and were split (1:10) again on day 21. The cells were maintained in the same media and compound cocktail described above except for the concentrations of PD0325901 (0.5 μM for D14 and 1 μM for D21) and SB431542 (0.5-1 μM after D14). The iPSC colonies were subsequently maintained in conventional hESC media in the absence of the above compounds.
Alkaline phosphatase staining was performed using ALP detection kit (cat no: SCR004, Chemicon) according to the product instructions. For immunocytochemistry, cells were fixed in 4% paraformaldehyde (10 min, RT), washed twice with PBS, blocked using 5% normal donkey serum (Chemicon) and 0.1% TritonX-100 (15 min, RT) and then treated with primary antibodies overnight at 4° C. The primary antibodies used were anti-NANOG (cat no: AB9220, Chemicon, 1:1,000); anti-OCT4 (cat no: sc-5279, Santa Cruz biotech, 1:200), anti-SSEA 4 (cat no: mab4304, Chemicon, 1:500), anti-Tra-1-81 (cat 560123, BD Biosciences, 1:100), anti-Tra-1-81 (mAb 4381, Chemicon, 1:500), anti-βIII TUBULIN (cat no: MMS-435P, Covance Research Products Inc, 1:1000), anti-PDX 1 (1:500) (a kind gift from Dr. C. Wright), anti-BRACHYURY (cat No: AF2085, R & D, final concentration 0.2 μg/ml). The cells were washed twice with PBS and then treated with secondary antibodies for 1 hour at room temperature. The secondary antibodies used were Alexa fluor 488 donkey anti-rabbit or anti-mouse IgG (Invitrogen, 1:1,000) and Alexa fluor 555 donkey anti-rabbit or anti-mouse IgG (Invitrogen, 1:1,000). Nuclei were stained with 0.5 μg/ml DAPI (Sigma). Images were captured using a Nikon Eclipse TE2000-U/X-cite 120 EXFO microscope with a photometric CoolSnap HQ2 camera.
We tested the TGFβ receptor inhibitor (SB431542), MEK inhibitor (PD0325901) and GSK-3 inhibitor (CHIR99021), on human fibroblast crl2097 that were retrovirally transduced with Oct4, Klf4, Sox2 and c-Myc, for their effects on reprogramming kinetics and efficiency. Conditions are the same as set forth in Example 5. Data were collected 8 days after compound treatment.

[2] = test system: mouse embryonic fibroblasts (129 or OG2 MEFs); assay: Screen for iPSC generation from MEFs transduced with Oct4/Klf4 (OK); assay type: cell-based; conditions: for hit in second synergist screen: OK-transduced MEFs, 1 μM BIX in medium, compound 0.5-2 μM, not followed up
Experimental: Unmodified MEFs derived from E13-14 embryos of the 129 mice were used for the initial screen. MEFs were plated on Matrigel at 3.5×10^4 cells/well of a 6-well plate and transduced with OK (retroviral vectors expressing Oct4 and Klf4) alone. Within 14-21 days, treated cells were assessed for the appearance of colonies that had the characteristic embryonic stem cell (ESC) colony morphology and were positive for the pluripotency marker alkaline phosphatase (ALP). Such OK-transduced cells generated only a few small non-compact colonies, which were weakly positive for ALP expression. These colonies initially appeared within 21 days after viral transduction and were difficult to expand. Therefore, such assay system offered a clean background for the identification of small molecules having desirable reprogramming inducing activity. Using this system, compounds from a library of around 2000 known small molecules (see Experimental Procedures below) were screened and were identified as hits when they induced the appearance of ESC colonies that were strongly positive for ALP within 14-21 days after treatment. This image-based method provided a more accurate assessment of reprogramming as compared to homogenous reporter-based assay. BIX appeared to have the strongest effect with reproducible induction of more than 1-2 compact ESC-like colonies with high ALP expression. We observed that when MEFs were treated with BIX after OK viral transduction, compact colonies with strong ALP expression could be readily detected within approximately 14-21 days. These cells were also positive for Nanog, Oct4 and SSEA-1 expression. […] However, the reprogramming efficiency in MEFs transduced with OK and treated with BIX was still low, about 2 colonies/3.5×10^4 cells, in comparison to the four factor-induced reprogramming of MEFs or the OK/BIX NPC reprogramming (Shi, Y. et al., Cell Stem Cell, 2:525-528 (2008)). Therefore, we conducted a second screen using a similar protocol, but where BIX was added to the basal media after OK viral transduction. This provided a more permissive platform to identify new small molecules that could further improve reprogramming efficiency. More importantly, this second screen could facilitate discovery of small molecules that impact reprogramming in a more specific manner, for example by acting on signal transduction pathways rather than on histone or DNA modifying enzymes. In this second screen, we again assayed the library of around 2000 known small molecules (see Experimental Procedures), and confirmed two compounds that were able to act in a synergistic manner with BIX to improve reprogramming based on the criteria of the screen. […] Therefore, RG108 was not pursued further for this study. Instead, we focused our phenotypic and functional characterization on another small molecule that was identified in the second screen, BayK, an L-calcium channel agonist. […] Therefore, BayK might play a more specific role in the reprogramming process. When 129 MEFs were transduced with empty retrovirus (negative control); no colonies observed. When 129 MEFs were transduced with OK without small molecules; few small flattened colonies with weak ALP expression present. […] When OK-transduced MEFs were treated with BIX in combination with BayK, a significant increase in the number of ALP^+ colonies that closely resemble the mESC morphology could be observed (˜7 colonies) as compared to OK-transduced MEFs treated with BIX alone (˜2 colonies).
Primary 12952/SvPasCrlf (primary screen) or ROSA26^+/−/OG2^+/− (secondary screen) MEFs were plated onto Matrigel (1:50; BD Biosciences, Bedford, Mass.) coated dishes at a density of 3.5×10^4 cells per well of a 6-well plate. Twenty-four hours later, these cells were transduced overnight with defined retroviruses at 37° C., 5% CO2. […] (all products were from Invitrogen, Carlsbad, Calif., except where mentioned). […]

mouse fibroblasts = assay: Reprogramming of mouse fibroblasts with exogenous poly-Arg transcription factor proteins; assay type: cell-based; conditions: cells incubated with transcription factor proteins plus agent
Experimental: Mouse fibroblasts were grown in mESC medium supplemented with 8 μg/ml of either Oct4/Sox2/Klf4 or Oct4/Sox2/Klf4/Myc (all proteins comprising poly-Arg as described above) for 6-8 hours, washed, and incubated for 2-3 days in mESC media without the above-listed transcription factors. This (4-12 hours with, 1-3 days without) was repeated a number (1, 2, 3, 4, or more) of times and then the cells were cultured in mESC for two weeks.
Mouse fibroblasts were grown in mESC growth medium [Knockout DMEM (Invitrogen) supplemented with 10% ES-FBS+10% KSR, 0.1 mM 2-ME, 1% Glutamax, 1% Non-essential amino acids, 1% EmbryoMax ESC Qualified Nucleosides (Millipore), and 10^3 units/ml LIF (ESGRO, Chemicon International)] supplemented with 8 μg/ml of Oct4/Sox2/Klf4/Myc (all four transcription factors are tagged with poly-Arg […]; SEQ ID NO:2) for 4-12 hours, followed by culturing the cells in the absence of the Oct4/Sox2/Klf4/Myc polypeptides for one day. This procedure was repeated 4 times. The cells were then cultured in mESC medium for another two weeks. iPSC clones were detected by colony morphology and expression of pluripotency markers. An intermediate iPSC clone, which expresses ALP but not Oct4 (Oct4), was dissociated with Trypsin-EDTA. The clone was then expanded by continuous culturing with regular mESC medium or medium supplemented with 0.5 μM PD0325901, 3 μM CHIR99021, 0.5 μM A-83-01. The number of Oct4-positive colonies were counted 2 weeks after small molecule treatment (FIG. 14).

[3] = test system: primary OG2 neural progenitor cells; assay: iPS cell induction from neural progenitor cells after retroviral transduction; assay type: cell-based, mouse; conditions: applied at late stage of reprogramming (after Oct4-GFP activation)
Experimental: The reporter neural progenitor cells were generated using a well established protocol by differentiating the Oct4-GiP mESCs grown in monolayer on gelatin in a chemically defined medium/CDM condition in the absence of serum and other growth factors/cytokines at low cell density for eight days, followed by neurophere formation and subsequent serial passaging in single cells in neural cell expansion media supplemented with 10 ng/ml of bFGF and EGF in monolayer for over six passages/24 days. The resulting neural progenitor cells were homogenous by cell morphology and neural marker expression, and were confirmed to be GFP negative and puromycin sensitive. Such neural progenitor cells plated in monolayer in conventional mESC growth media were transduced with combinations of four, three, or two of the four factors, followed by treating the transduced cells with individual small molecules from a small known drug collection in a typical 6-well format. The compound treatment and culture were continued for additional ten days before puromycin was added. The number of green and puro-resistant colonies was counted at day 14. In comparison to the only four-gene transduced neural cells as the positive control, compound conditions that generated more green colonies than the corresponding gene-only conditions were picked as primary hits. To further confirm these primary hit conditions, we chose to use a late passage of mouse CNS neural progenitor cells (Do, J. T. et al., Stem Cells 25, 1013-1020 (2007)) that were derived from fetal brain of OG2^+/−/ROSA26^+/− transgenic mice (which contain an Oct4-GFP reporter) and expanded in monolayer under the same neural CDM condition as the above with 10 ng/ml of bFGF and EGF. Such cells truly from a non-pluripotent tissue would be devoid of concerns of any contaminating ES cell in the above screening system, which is highly unlikely with all appropriate controls. Similar culture conditions and reprogramming assays were performed using the OG2 neural progenitor cells except that puromycin was not used and green colonies were picked out and characterized by staining of Nanog, SSEA1 and ALP.
mESC-derived or primary OG2 mouse neural progenitor cells were plated into Matrigel (1:50, BD Biosciences) coated 6-well plates at 3.5×10^4 cells/well in the neural progenitor cell expansion media. After one day these cells were transduced with retrovirus for overnight, and the medium was changed into the mESC growth media [DMEM, 5% FBS, 10% KSR, 1× non-essential amino acids (Gibco), 2 mM L-glutamine (Gibco), 0.1 mM β-mercaptoethanol (Gibco) and 10^3 unit/ml LIF (Chemicon)] with or without BIX01294 (0.5-1 μM). GFP-positive iPS cell colonies appeared after 9-14 days, and were picked out and expanded on MEF feeder cells with the mESC growth media.

TGFβ
effect on 4 factor-mediated reprogramming of fibroblasts ([1]; addition of TGFβ): had an inhibitory effect on 4 factor-mediated reprogramming of fibroblasts

c1nc2nc(Nc3ccc(N4CCOCC4)cc3)nc(NC3CCCCC3)c2[nH]1 [reversine]
hit in second synergist screen [2]: primary hits

O=C(O)C(Cc1c[nH]c2ccccc12)N1C(=O)c2ccccc2C1=O (stereo not drawn) [RG108]
reprogramming of OK transduced MEFs (second screen) ([2]; in the presence of BIX): enhanced reprogramming of OK transduced MEFs in the presence of BIX

Cc1cc(Nc2ncc3c(n2)N(C)C(=O)N(c2cc(NC(=O)c4cccc(C(F)(F)F)c4)ccc2C)C3)n(C)n1 [pluripotin]
hit in second synergist screen [2]: primary hits

CCN(CC)CCCCNc1ncc2cc(-c3cc(OC)cc(OC)c3)c(NC(=O)NC(C)(C)C)nc2n1 [PD173074]
hit in second synergist screen [2]: primary hits

O=C(NOC[C@H](O)CO)c1ccc(F)c(F)c1Nc1ccc(I)cc1F [PD0325901]
efficiency and speed of development of pluripotent cells (mouse fibroblasts): improved efficiency and speed of development of pluripotent cells | ALP+ colonies with hESC-like morphology (FIG. 7A) ([1]; 4TFs transduced fibroblasts, 7 days after compound treatment, SB431542 at 2 μM): yielded none | colonies stained positive for SSEA4 and NANOG ([1]; day 7 post-treatment (D14)): no NANOG^+ colonies were observed | growth of non-iPS cells and iPS cells (selection) [3]: inhibits growth of non-iPS cells while it effectively promotes growth and stable reprogramming of iPS cells
